This note sets out measurements from PubChem BioAssay (NCI).

Test systems include BT-549 breast; CAKI-1 renal; COLO 205 colon; DU-145 prostate; HOP-62 NSCLC; K-562 leukemia; OVCAR-3 ovarian; OVCAR-8 ovarian; SN12C renal; UACC-62 melanoma.
Experiment in all cases: NCI tumour cell line growth inhibition, 48 h

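In this assay, cells in 96-well plates receive the compound at five concentrations for 48 hours. Endpoints are linearly interpolated between the surrounding concentrations. GI50 = concentration required for 50% inhibition of growth. TGI marks complete inhibition of growth.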

With `COc1cc2c(cc1NC(=O)C(Cl)Cl)-c1ccc(NC(=O)C(Cl)Cl)cc1C2`, the GI50 in the experiment with BT-549 breast was 1740 nM; in the experiment on CAKI-1 renal it was 1010 nM; in the experiment with COLO 205 colon, 407 nM; in the experiment with DU-145 prostate it was 265 nM; with HOP-62 NSCLC, 587 nM; in the experiment on K-562 leukemia it was 438 nM. For the same compound, the GI50 in the experiment on OVCAR-3 ovarian is 569 nM; in the experiment with OVCAR-8 ovarian, 439 nM; with SN12C renal, 4670 nM; in the experiment on UACC-62 melanoma, 586 nM. The TGI in the experiment on BT-549 breast worked out at 13300 nM; in the experiment with CAKI-1 renal it was 4040 nM; in the experiment on COLO 205 colon it was 1100 nM; in the experiment on DU-145 prostate, 804 nM; with HOP-62 NSCLC, 1640 nM; with K-562 leukemia, 3640 nM. For the same compound, the TGI in the experiment with OVCAR-3 ovarian amounted to 1250 nM; in the experiment on OVCAR-8 ovarian, 1680 nM; in the experiment on SN12C renal, 19600 nM; in the experiment on UACC-62 melanoma, 2070 nM.
For `O=C(c1ccco1)c1c(C(F)(F)F)n([O-])c2cc(F)c(F)cc2[n+]1=O`, the GI50 was 163 nM in the experiment on BT-549 breast; 440 nM in the experiment on CAKI-1 renal; 229 nM in the experiment on COLO 205 colon; 238 nM in the experiment with DU-145 prostate; 348 nM with HOP-62 NSCLC; 79 nM in the experiment with K-562 leukemia. Further, the GI50 in the experiment on OVCAR-3 ovarian was 193 nM; in the experiment on OVCAR-8 ovarian, 412 nM; in the experiment with SN12C renal it was 307 nM; in the experiment with UACC-62 melanoma, 242 nM. Moreover, the TGI in the experiment on BT-549 breast amounted to 389 nM; with CAKI-1 renal it was 1370 nM; with COLO 205 colon, 3060 nM; with DU-145 prostate, 727 nM; in the experiment with HOP-62 NSCLC, 850 nM; in the experiment on K-562 leukemia, 8340 nM. In addition, the TGI was determined as 1350 nM in the experiment with OVCAR-3 ovarian, 1330 nM in the experiment on OVCAR-8 ovarian, 1010 nM in the experiment with SN12C renal and 760 nM in the experiment on UACC-62 melanoma.
`CN(C)c1nc(N)c(C#N)c(C#N)c1C#N`: the TGI in the experiment on BT-549 breast was over 10000 nM; with CAKI-1 renal, over 10000 nM; in the experiment with COLO 205 colon, over 10000 nM; in the experiment on DU-145 prostate, over 10000 nM; with HOP-62 NSCLC it was over 10000 nM; in the experiment on K-562 leukemia, over 7150 nM. Moreover, the TGI in the experiment on OVCAR-3 ovarian, with OVCAR-8 ovarian, in the experiment with SN12C renal and in the experiment on UACC-62 melanoma was over 10000 nM each time.
On to `O=c1[nH]c(=S)[nH]c(-c2ccccc2)c1Cc1c(O)ccc2ccccc12`, for which the TGI in the experiment with BT-549 breast is 90700 nM; with CAKI-1 renal it was over 100000 nM; in the experiment on COLO 205 colon, 42100 nM; with DU-145 prostate it was over 100000 nM; in the experiment on HOP-62 NSCLC it was over 100000 nM; with K-562 leukemia, over 100000 nM. In addition, the TGI is over 100000 nM in the experiment with OVCAR-3 ovarian, over 100000 nM in the experiment with OVCAR-8 ovarian, over 100000 nM with SN12C renal and 52400 nM in the experiment with UACC-62 melanoma.
On to `Nc1nc(C(=O)O)c(N=Nc2ccccc2)c(=O)[nH]1`, for which the TGI in the experiment on BT-549 breast, with CAKI-1 renal, in the experiment on COLO 205 colon, in the experiment on DU-145 prostate, in the experiment on HOP-62 NSCLC and with K-562 leukemia was over 100000 nM in each case. Also, the TGI with OVCAR-3 ovarian, in the experiment with OVCAR-8 ovarian, in the experiment with SN12C renal and with UACC-62 melanoma was over 100000 nM each time.
On to `N#Cc1c(NC(=O)c2ccccc2F)sc2c1CCCC2`, for which the GI50 is over 20300 nM in the experiment on BT-549 breast; over 19400 nM with CAKI-1 renal; 22200 nM in the experiment on COLO 205 colon; over 25000 nM with DU-145 prostate; over 25000 nM with HOP-62 NSCLC; 5070 nM with K-562 leukemia. In addition, the GI50 is over 25000 nM in the experiment with OVCAR-3 ovarian, over 25000 nM with OVCAR-8 ovarian, over 25000 nM in the experiment on SN12C renal and 18100 nM with UACC-62 melanoma. The TGI in the experiment on BT-549 breast, in the experiment on CAKI-1 renal, in the experiment on COLO 205 colon, in the experiment with DU-145 prostate, with HOP-62 NSCLC and in the experiment with K-562 leukemia was over 25000 nM throughout. Also, the TGI in the experiment with OVCAR-3 ovarian, with OVCAR-8 ovarian, in the experiment with SN12C renal and in the experiment with UACC-62 melanoma was over 25000 nM each time.
Regarding `COC1=C(OC)[C@]2(OC)c3c(O)c(OC)c4c(c3O[C@@]23O[C@@H](c2ccccc2)CC=C3C1=O)[C@@H](OC)C[C@H](c1ccccc1)O4`, the GI50 in the experiment with BT-549 breast is 461 nM; with CAKI-1 renal, 510 nM; with COLO 205 colon it was 326 nM; in the experiment with DU-145 prostate, 2090 nM; in the experiment with HOP-62 NSCLC it was 2330 nM; with K-562 leukemia, 67.6 nM. The GI50 with OVCAR-3 ovarian is 255 nM; in the experiment with OVCAR-8 ovarian it was 451 nM; with SN12C renal, 317 nM; in the experiment on UACC-62 melanoma, 1820 nM. Further, the TGI turned out to be 1560 nM in the experiment on BT-549 breast; 1880 nM in the experiment with CAKI-1 renal; 1440 nM in the experiment on COLO 205 colon; 3750 nM in the experiment on DU-145 prostate; 5610 nM in the experiment on HOP-62 NSCLC; 333 nM with K-562 leukemia. Also, the TGI in the experiment on OVCAR-3 ovarian was determined as 720 nM; in the experiment on OVCAR-8 ovarian, 2620 nM; with SN12C renal, 1030 nM; with UACC-62 melanoma it was 3830 nM.
Take `CC1CCN(CCOc2ccc(CNc3ccc4nc(CCC5CCCCC5)[nH]c4c3)cc2)CC1`: the GI50 was 1520 nM in the experiment on BT-549 breast; 1870 nM with CAKI-1 renal; 1570 nM in the experiment with COLO 205 colon; 2520 nM in the experiment on DU-145 prostate; 1680 nM in the experiment with HOP-62 NSCLC; 594 nM in the experiment with K-562 leukemia. Further, the GI50 in the experiment on OVCAR-3 ovarian was 1610 nM; in the experiment with OVCAR-8 ovarian, 1960 nM; with SN12C renal, 1540 nM; in the experiment with UACC-62 melanoma it was 1900 nM. Besides, the TGI turned out to be 2910 nM in the experiment on BT-549 breast; 3340 nM with CAKI-1 renal; 3080 nM in the experiment with COLO 205 colon; 6900 nM in the experiment on DU-145 prostate; 3210 nM in the experiment with HOP-62 NSCLC; 2440 nM in the experiment with K-562 leukemia. Also, the TGI in the experiment with OVCAR-3 ovarian amounted to 3120 nM; in the experiment on OVCAR-8 ovarian it was 4240 nM; in the experiment on SN12C renal it was 2950 nM; with UACC-62 melanoma it was 3360 nM.
